From patent US20090076047A1, “2-Substituted Hydroxylaminopyrimidine, Method for the Production and the Use Thereof in the Form of Pesticides” (priority 2005, published 2009) come the findings set out here.

The structures appear in SMILES notation.

In one data set the test system is Septoria tritici. Description: Microtest No. 1: activity against the Septoria leaf spot pathogen Septoria tritici in the microtiter test. The class given is cell-based. The settings on record: 125 ppm, day 7 after inoculation, absorption at 405 nm; active compound-free control = 100%. As for the experimental part: Microtest No. 1—Activity Against the Septoria Leaf Spot Pathogen Septoria tritici in the Microtiter Test The stock solution was pipetted into a microtiter plate (MTP) and diluted with an aqueous malt-based fungus nutrient medium to the stated active compound concentration. An aqueous spore suspension of Septoria tritici was then added. The plates were placed in a water vapor-saturated chamber at temperatures of 18° C. On day 7 after the inoculation, the MTPs were measured in an absorption photometer at 405 nm. The measured parameters were compared to the growth of the active compound-free control variant (100%) and the fungus- and active compound-free blank value to determine the relative growth in % of the pathogens in the individual active compounds.

In a further data set the test system is Pyricularia oryzae. The class given is cell-based. The note with it: 125 ppm, day 7 after inoculation, absorption at 405 nm; active compound-free control = 100%.
For another data set, the system named is Puccinia recondita. Kind of data set: Curative activity against brown rust of wheat caused by Puccinia recondita (greenhouse). The class given is in vivo. The note with it: 63 ppm, wheat sprayed 1 day after inoculation (curative), 7 days; untreated control 90% infected. How it is done:
The solution was then made up to 100 ml with water. This stock solution was diluted to the active compound concentration stated below using the solvent/emulsifier/water mixture described. Curative Activity Against Brown Rust of Wheat Caused by Puccinia recondita Leaves of potted wheat seedlings of the cultivar “Kanzler” were inoculated with a spore suspension of brown rust (Puccinia recondita). The pots were then placed into a chamber with high atmospheric humidity (90-95%) at 20-22° C. for 24 hours. During this time, the spores germinated and the germ tubes penetrated into the leaf tissue. The next day, the infected plants were sprayed to runoff point with the active compound solution described above having the concentration of active compound stated below. After the spray coating had dried on, the test plants were cultivated in a greenhouse at temperatures between 20 and 22° C. and at 65 to 70% relative atmospheric humidity for 7 days. The extent of the rust fungus development on the leaves was then determined.

Data set [1] concerns Erysiphe [syn. Blumeria] graminis forma specialis. tritici. Description: Activity against mildew of wheat caused by Erysiphe [syn. Blumeria] graminis forma specialis tritici (greenhouse). The class given is in vivo, Erysiphe graminis f. sp. tritici. The settings on record: 250 ppm, wheat seedlings, protective, assessed after 7 days, % of total leaf area; control 90% infected.

`COc1nc(Cl)c(-c2c(F)cc(F)cc2F)c(N(CC2CC2)OC)n1` [Compound 40]: the relative growth in the data set with Septoria tritici and with Pyricularia oryzae was 0% in each case.
In the case of `CONC(=N)c1nc(Cl)c(-c2c(F)cc(F)cc2F)c(N2CCCO2)n1` [Compound 17, N-Methoxy-4-chloro-6-(isoxazolidin-2-yl)-5-(2,4,6-trifluorophenyl)-2-pyrimidinecarboximidamide], the melting point (in general, the temperature, or range, at which the solid turns liquid) lay within 192 to 193 °C.
Regarding `CON=C(N)c1nc(Cl)c(-c2c(F)cccc2Cl)c(N(CC2CC2)OC)n1` [Compound 33], in the data set with Puccinia recondita, the infection stood at 0%.
Take `CC1CCCN(c2nc(-n3cncn3)nc(Cl)c2-c2c(F)cc(F)cc2F)O1` (centres unmarked) [Compound 21, 4-Chloro-6-(6-methyltetrahydro-2H-(1,2)-oxazin-2-yl)-2-(1,2,4-triazol-1-yl)-5-(2,4,6-trifluorophenyl)pyrimidine]: the melting point was 141 to 143 °C.
On to `CON(c1nc(C#N)nc(Cl)c1-c1c(F)cccc1Cl)C(C)C` [Compound 32], for which the relative growth in the data set on Septoria tritici and with Pyricularia oryzae was 0% each time.
Molecule `CON(CC1CC1)c1nc(C#N)nc(Cl)c1-c1c(F)cccc1F` [Compound 35] registered an infection in data set [1] of 5%.
